Test results as given in patent publication US5587459A, “Immunoconjugates comprising tyrosine kinase inhibitors” (Regents of the University of Minnesota, priority 1994, dated 1996).
Where two headings read alike, the source gives them in different places.

Legend:
[1] = system: NALM-6 cells (human B-lineage leukemia); experiment: SCID mouse model of human B-lineage leukemia; type: in vivo; settings: SCID mice inoculated with NALM-6 cells; schedule of each treatment group as in Table 6
Description: (§1) The pharmacokinetic features of B43-GEN was evaluated in a SCID mouse model with human B-lineage leukemia as follows. SCID mice challenged with NALM-6 cells were treated with either 25 μg/mouse=168 pmols/mouse (>10-foldlower than the MTD) or 50 μg/mouse=335 pmols/mouse (>5-fold lower than the MTD). All control mice were treated with unconjugated GEN (10 μg/mouse=37 nmols/mouse), unconjugated B43 antibody (50 μg/mouse=335pmols/mouse), TXU(anti-CD7)-GEN control immunoconjugate (50 μg/mouse=335 pmols/mouse), or PBS.
All control mice treated with unconjugated GEN, unconjugated B43 antibody, TXU(anti-CD7)-GEN control immunoconjugate, or PBS died of disseminated human B-lineage leukemia at 24 to 61 days after inoculation (FIG. 8). […] These long-term surviving mice were electively killed at 142 days in order to examine their burden of human leukemia cells.

[2] = target: T1, human topoisomerase II enzyme (Homo sapiens, UniProt P11388); experiment: Topoisomerase II Drug Screening kit (pRYG relaxation/cleavage); type: biochemical; settings: B43-GEN at micromolar concentrations
T1 construct: purchased Topogen, Inc., Columbus, Ohio
Source text: The kit is based upon formation of DNA cleavage products after treatment of a supercoiled DNA substrate (pRYG) containing a single high affinity topoisomerase II recognition and cleavage site.

[3] = system: tyrosine phosphorylation of abundant protein substrates in NALM-6 cells; experiment: Antiphosphotyrosine immunoblotting, NALM-6 cells; type: cell-based, human; settings: immunoconjugate nanomolar, unconjugated GEN micromolar
[4] = system: RAMOS cells (human Burkitt's lymphoma); experiment: SCID mouse model of human B-lineage lymphoma; type: in vivo, SCID mice; settings: 5×10^6 RAMOS cells; one value pooled over all control groups incl. PBS
Description: Control mice were treated with unconjugated GEN (10 μg/mouse=37 nmols/mouse), unconjugated B43 monoclonal antibody (50 μg/mouse=335 pmols/mouse), TXU(anti-CD7)-GEN control immunoconjugate (50 μg/mouse=335 pmols/mouse), or PBS. For comparison, some mice were treated with B43-pokeweed antiviral protein (PAP) immunotoxin (total=25 μg/mouse), which is an active anti-leukemia agent. Uckun et al., J. Exp. Med., 163, 347 (1986). Survival of the mice was monitored by daily observation and event times were measured from the day of inoculation of lymphoma cells to the day of death. The probability of event-free survival was determined and event-free interval curves were generated using the Kaplan-Meier product limit method as described by Uckun et al. New Engl. J. Med., 329, 1296 (1993).

in vivo [5] = type: in vivo, SCID mice; settings: Minimal Leukemia Burden
Description: Lines represent two-compartment model simulations, symbols depict measured concentrations.
as §1

[6] = target: T2, CD19-associated LYN kinase (Homo sapiens, UniProt P07948); experiment: Immune complex kinase assay, LYN in treated NALM-6 cells; type: cell-based; settings: NALM-6 cells treated 4 hours; immunoconjugate nanomolar, unconjugated GEN micromolar
T2 construct: LYN kinase immunoprecipitated from NALM-6 cells; endogenous in cells; host or cells: NALM-6
Description: Immune complex kinase assays were performed using acid-denatured rabbit enolase as an exogenous PTK substrate as previously described by Uckun et al. in J. Biol. Chem., 268, 21172 (1993).
Controls were treated with unconjugated GEN, TXU(anti-CD7)-GEN immunoconjugate directed against the CD7/Tp41 T-cell surface antigen, unconjugated and unmodified B43 antibody, or SANPAH-modified unconjugated B43 antibody.

in vivo [7] = experiment: in vivo; design: species or system SCID mice; settings: Minimal Leukemia Burden; for Kp: mouse, in vivo, iv
Description: FIG. 7[C] is a depiction of the plasma or tissue concentrations vs. time curves after i.v. injection of 58 pmol GEN (Δ) or BP43-GEN (o,) into SCID mice with end stage leukemia (dashed lines) or no leukemia (solid lines). Lines represent simulations from the physiological pharmacokinetic model, symbols depict measured concentrations.
as §1
This hypothesis is supported by measurement of higher concentrations of the immunoconjugate in tissues of SCID mice with end-stage leukemia, when compared to healthy SCID mice which have not been inoculated with leukemia cells (FIG. 7C). The spleen, liver, and lungs had the highest tissue-to-plasma ratio, with the tissue distribution ratio increasing approximately 2-fold in spleen and liver of mice with end-stage leukemia (Table 5). Although tissue distribution of the immunoconjugate into the femur was low in mice with a minimal leukemia burden, it increased 3-fold in mice with end-stage leukemia, reflecting binding of the immunoconjugate to CD19 positive human B-lineage leukemia cells infiltrating bone marrow.

RAMOS cells = experiment: Apoptosis assays in RAMOS cells (morphology, DNA flow cytometry, DNA fragmentation); type: cell-based, human
Source text: DNA was then electrophoresed through a 1% agarose gel and visualized by UV light after staining with ethidium bromide.

T1 sequence (P11388 whole entry): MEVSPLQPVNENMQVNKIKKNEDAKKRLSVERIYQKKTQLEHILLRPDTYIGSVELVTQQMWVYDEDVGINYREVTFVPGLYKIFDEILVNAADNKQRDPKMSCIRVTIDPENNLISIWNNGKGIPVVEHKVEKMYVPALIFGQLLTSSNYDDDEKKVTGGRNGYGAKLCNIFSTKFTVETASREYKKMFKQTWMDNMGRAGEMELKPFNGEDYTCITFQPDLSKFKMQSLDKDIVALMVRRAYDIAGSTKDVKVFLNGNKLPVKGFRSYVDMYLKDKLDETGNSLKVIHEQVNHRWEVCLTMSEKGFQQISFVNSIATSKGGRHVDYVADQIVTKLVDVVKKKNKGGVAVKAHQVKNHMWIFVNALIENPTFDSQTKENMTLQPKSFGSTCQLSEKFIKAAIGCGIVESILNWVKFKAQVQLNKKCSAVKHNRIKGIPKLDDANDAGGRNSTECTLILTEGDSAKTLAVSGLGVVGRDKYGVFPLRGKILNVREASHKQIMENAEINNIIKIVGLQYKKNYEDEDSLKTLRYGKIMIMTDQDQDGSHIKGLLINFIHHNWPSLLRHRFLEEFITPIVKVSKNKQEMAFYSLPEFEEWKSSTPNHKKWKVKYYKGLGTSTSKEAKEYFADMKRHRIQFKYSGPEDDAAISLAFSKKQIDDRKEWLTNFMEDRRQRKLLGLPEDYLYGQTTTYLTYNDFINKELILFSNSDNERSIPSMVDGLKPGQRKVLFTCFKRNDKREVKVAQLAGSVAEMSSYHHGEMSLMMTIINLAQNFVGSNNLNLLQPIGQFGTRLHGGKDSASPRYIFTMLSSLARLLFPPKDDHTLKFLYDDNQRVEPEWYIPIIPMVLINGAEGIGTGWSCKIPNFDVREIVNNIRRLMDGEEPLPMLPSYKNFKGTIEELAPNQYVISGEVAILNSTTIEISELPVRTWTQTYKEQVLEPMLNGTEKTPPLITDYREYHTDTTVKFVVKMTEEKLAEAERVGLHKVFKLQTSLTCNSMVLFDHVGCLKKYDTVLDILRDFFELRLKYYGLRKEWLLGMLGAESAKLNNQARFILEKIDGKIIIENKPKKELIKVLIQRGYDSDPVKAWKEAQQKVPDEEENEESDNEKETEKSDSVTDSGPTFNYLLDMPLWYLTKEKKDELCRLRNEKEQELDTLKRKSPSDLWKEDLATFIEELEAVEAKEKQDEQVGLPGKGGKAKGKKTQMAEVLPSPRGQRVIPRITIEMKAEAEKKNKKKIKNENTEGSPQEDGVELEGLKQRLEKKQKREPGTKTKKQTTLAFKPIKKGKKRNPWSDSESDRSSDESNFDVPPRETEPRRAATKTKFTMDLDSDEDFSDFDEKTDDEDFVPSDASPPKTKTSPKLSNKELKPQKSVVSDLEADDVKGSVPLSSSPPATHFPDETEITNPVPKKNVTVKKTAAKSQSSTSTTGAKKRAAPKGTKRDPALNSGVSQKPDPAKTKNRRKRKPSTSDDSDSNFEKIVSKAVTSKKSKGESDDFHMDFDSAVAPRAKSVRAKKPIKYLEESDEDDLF
T2 sequence (P07948 2-512 limits assumed): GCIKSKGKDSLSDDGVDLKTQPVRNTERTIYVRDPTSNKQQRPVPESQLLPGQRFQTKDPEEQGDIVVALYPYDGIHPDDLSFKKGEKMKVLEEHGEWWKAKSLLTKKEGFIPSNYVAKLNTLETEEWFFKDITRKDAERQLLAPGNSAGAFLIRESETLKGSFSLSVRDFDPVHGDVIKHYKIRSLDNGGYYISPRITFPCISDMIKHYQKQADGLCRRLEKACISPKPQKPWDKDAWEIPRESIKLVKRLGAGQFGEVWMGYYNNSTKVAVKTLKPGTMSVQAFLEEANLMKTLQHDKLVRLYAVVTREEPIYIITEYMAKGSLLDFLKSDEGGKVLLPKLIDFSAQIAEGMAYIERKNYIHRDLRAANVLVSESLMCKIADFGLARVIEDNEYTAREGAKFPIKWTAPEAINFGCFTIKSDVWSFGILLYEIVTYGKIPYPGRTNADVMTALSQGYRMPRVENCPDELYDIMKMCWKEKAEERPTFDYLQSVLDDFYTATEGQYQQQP

O=NN(CCCl)C(=O)NCCCl [Carmustine]
EFS (%) 60 days [1]: 20%
EFS (%) 120 days [1]: 0%
Median EFS [1]: 54 days

COc1cc([C@@H]2c3cc4c(cc3[C@@H](O[C@@H]3O[C@@H]5CO[C@@H](c6cccs6)O[C@H]5[C@H](O)[C@H]3O)[C@H]3COC(=O)[C@H]23)OCO4)cc(OC)c1O [teniposide (VM-26), teniposide]
Inhibition of topoisomerase II (relaxation of supercoiled pRYG DNA) [2]: impairs the ability of human topoisomerase II to relax the supercoiled DNA substrate

L-asparaginase
EFS (%) 60 days [1]: 0%
EFS (%) 120 days [1]: 0%
Median EFS [1]: 44 days

O=c1c(-c2ccc(O)cc2)coc2cc(O)cc(O)c12 [GEN, 5,7,4'-trihydroxyisoflavone]
Tyrosine dephosphorylation of abundant protein substrates [3]: failed to affect
Median event-free survival [4]: 48.0 days
Cl (systemic clearance from plasma) (in vivo [5]): 49.7 µL/h/g
Kcp (distribution rate constant from central to peripheral compartment) (in vivo [5]): 1.341 h⁻¹
Kpc (distribution rate constant from peripheral to central compartment) (in vivo [5]): 0.549 h⁻¹
Vc (central volume of distribution) (in vivo [5]): 87.0 µL/g
k el (in vivo [5]; mouse, in vivo, iv, read-out: Ke (elimination rate constant) (converted)): 0.000159 s⁻¹
half-life (in vivo [5]; mouse, in vivo, iv, read-out: T1/2β (elimination halflife) (converted)): 306 min
Inhibition of LYN kinase (autophosphorylation, enolase substrate phosphorylation) [6]: failed to affect
Clearance, Kidney (in vivo [7]): 18.7 µL/h/g
Clearance, Liver (in vivo [7]): 40.9 µL/h/g
Total Clearance (in vivo [7]): 59.6 µL/h/g
Kp (in vivo [7]; read-out: Linear Binding Constant (R), Brain): 0.027
Kp (in vivo [7]; read-out: Linear Binding Constant (R), Heart): 0.335
Kp (in vivo [7]; read-out: Linear Binding Constant (R), Kidney): 0.253
Kp (in vivo [7]; read-out: Linear Binding Constant (R), Liver): 0.5
Kp (in vivo [7]; read-out: Linear Binding Constant (R), Lungs): 0.531
Kp (in vivo [7]; read-out: Linear Binding Constant (R), Muscle): 0.095
Kp (in vivo [7]; read-out: Linear Binding Constant (R), Skin): 0.208
Kp (in vivo [7]; read-out: Linear Binding Constant (R), Spleen): 0.04
Kp (in vivo [7]; residual drug not accounted for by tissues studied, read-out: Linear Binding Constant (R), Rest of Body): 1.11
DNA fragmentation / apoptosis by agarose gel electrophoresis (RAMOS cells; RAMOS cells, 8-24 hours, immunoconjugates nanomolar, unconjugated GEN micromolar): no fragmentation
DNA fragmentation by the unconjugated moieties (RAMOS cells; high concentrations, FIG. 4B lower panel): induced DNA fragmentation

Nc1ccn([C@@H]2O[C@H](CO)[C@@H](O)[C@@H]2O)c(=O)n1 [Cytarabine]
EFS (%) 60 days [1]: 20%
EFS (%) 120 days [1]: 0%
Median EFS [1]: 57 days

C[C@H]1C[C@@H]2[C@H](C(=O)C[C@@]3(C)[C@H]2CC[C@]3(O)C(=O)CO)[C@@]2(C)C=CC(=O)C=C12 [Methylprednisone]
EFS (%) 60 days [1]: 40%
EFS (%) 120 days [1]: 20%
Median EFS [1]: 56 days

O=P1(N(CCCl)CCCl)NCCCO1 (stereo not drawn) [Cyclophosphamide]
EFS (%) 60 days [1]: 40%
EFS (%) 120 days [1]: 10%
Median EFS [1]: 54 days

COc1cc([C@@H]2c3cc4c(cc3[C@@H](O[C@@H]3O[C@@H]5CO[C@@H](C)O[C@H]5[C@H](O)[C@H]3O)[C@H]3COC(=O)[C@H]23)OCO4)cc(OC)c1O [Etoposide]
EFS (%) 60 days [1]: 60%
EFS (%) 120 days [1]: 30%
Median EFS [1]: 66 days

CC(=O)O[C@H]1C(=O)[C@@]2(C)[C@H]([C@H](OC(=O)c3ccccc3)[C@]3(O)C[C@H](OC(=O)[C@H](O)[C@@H](NC(=O)c4ccccc4)c4ccccc4)C(C)=C1C3(C)C)[C@]1(OC(C)=O)CO[C@@H]1C[C@@H]2O [Taxol]
EFS (%) 60 days [1]: 0%
EFS (%) 120 days [1]: 0%
Median EFS [1]: 37 days

CC[C@]1(O)C[C@H]2CN(CCc3c([nH]c4ccccc34)[C@@](C(=O)OC)(c3cc4c(cc3OC)N(C=O)[C@H]3[C@@](O)(C(=O)OC)[C@H](OC(C)=O)[C@]5(CC)C=CCN6CC[C@]43[C@@H]65)C2)C1 [Vincristine]
EFS (%) 60 days [1]: 0%
EFS (%) 120 days [1]: 0%
Median EFS [1]: 51 days

CC[C@@]1(O)C(=O)OCc2c1cc1n(c2=O)Cc2cc3c(CN(C)C)c(O)ccc3nc2-1 [Topotecan]
EFS (%) 60 days [1]: 18%
EFS (%) 120 days [1]: 0%
Median EFS [1]: 44 days

COc1cccc2c1C(=O)c1c(O)c3c(c(O)c1C2=O)C[C@@](O)(C(=O)CO)C[C@@H]3O[C@H]1C[C@H](N)[C@H](O)[C@H](C)O1 [Doxorubicin]
EFS (%) 60 days [1]: 20%
EFS (%) 120 days [1]: 0%
Median EFS [1]: 49 days
